Source: patent US9265189B2, “Method for reducing damage by harmful organisms in corn cultivation” (SUMITOMO CHEMICAL COMPANY, LIMITED, priority 2012, dated 2016)

Key:
Assay type in all cases: in vivo
[1] = system: Agriotes spp.; assay: Field test, corn plants damaged by Agriotes spp. after in-furrow spray (Example 1); conditions: Example section 1: clothianidin 50 g/ha, in-furrow spray of Dantop 50WG aqueous suspension 100 L/ha, corn DK 440, 35 days after application; non-treatment section 43
Protocol: Using a pneumatic seeder (disk furrow opener, manufactured by Gaspardo) equipped with a power sprayer (trade name: WJR 2525, manufactured by HONDA), a cultivated land was ditched at intervals of 75 cm to a depth of 3 cm from the soil surface, and the furrow was seeded with corn (Zea Mays, trade name: DK 440; hybrid variety, manufactured by Monsanto) at intervals of 13 cm. A seeding density of corn was 100000 seeds/ha. Then, the furrow was spray-treated with an aqueous suspension of a clothianidin water dispersible granule (using a 50% dispersible granule, trade name: Dantop 50WG, manufactured by Philagro) at 100 L/ha so that the application amount of clothianidin was 50 g/ha, and then a soil on the side of the furrow was gathered together to close the furrow. This was defined as an example section 1. For comparison, a non-treatment section, which was seeded with corn without application of a clothianidin water dispersible granule, was provided. […] 35 days after application of the clothianidin water dispersible granule, the number of plants of corn damaged by Agriotes spp. in each of the example section 1 and the non-treatment section was investigated, a damage plant rate was calculated in accordance with the following equation, and then an average damage plants rate of the four investigation sections was determined. […]

[2] = system: Diabrotica virgifera virgifera and Agriotes lineatus; assay: Field test, lodge rate, clothianidin in-furrow, seed treated with thiuram and cyprosulfamide (Example 9); conditions: clothianidin 50 g/ha in-furrow spray 125 L/ha, 165 days after application, example in present tense
Excerpt: A chemical fertilizer (N:P:K=15:15:15) is applied to the soil surface of a cultivated land at 300 kg/ha, and the cultivated land is then plowed. 7 days after fertilization, for suppressing generation of weeds, the soil surface of the whole cultivated land is spray-treated with a mixed liquid containing thiencarbazone-methyl and isoxaflutole, each of which being a herbicide, at 150 L/ha so that the application amounts of thiencarbazone-methyl and isoxaflutole are 9.2 g/ha and 23 g/ha. 21 days after fertilization, using a pneumatic seeder (disk furrow opener) equipped with a power sprayer, a cultivated land is ditched at intervals of 75 cm to a depth of 5 cm from the soil surface, and the furrow is seeded with corn (Zea Mays; hybrid variety). The furrow is seeded at intervals of 20 cm using, as a seed of corn, one treated with thiuram and cyprosulfamide. A seeding density of corn is 70000 seeds/ha. […] 165 days after application of the aqueous suspension of clothianidin, the number of plants of corn lodged due to damage by Diabrotica virgifera virgifera and Agriotes lineatus in the furrows of the treatment section and the non-treatment section, for which the number of plants of corn germinated is investigated, is investigated, a lodge rate is calculated in accordance with the following equation, and then an average lodge rate for the four investigation sections is determined.

[3] = system: Agriotes spp.; assay: Field test, corn plants damaged by Agriotes spp. after in-furrow spray (Example 2); conditions: Example section 2: clothianidin 50 g/ha, in-furrow spray of Dantop 50WG aqueous suspension 100 L/ha, corn DK 440, 34 days after application; non-treatment section 73.3
Protocol: Using a pneumatic seeder (disk furrow opener, manufactured by Gaspardo) equipped with a power sprayer (trade name: WJR 2525, manufactured by HONDA), a cultivated land was ditched at intervals of 75 cm to a depth of 3 cm from the soil surface, and the furrow was seeded with corn (Zea Mays, trade name: DK 440; hybrid variety, manufactured by Monsanto) at intervals of […]. A seeding density of corn was 100000 seeds/ha. Then, the furrow was spray-treated with an aqueous suspension of a clothianidin water dispersible granule (using a 50% dispersible granule, trade name: Dantop 50WG, manufactured by Philagro) at 100 L/ha so that the application amount of clothianidin was 50 g/ha, and then a soil on the side of the furrow was gathered together to close the furrow. This was defined as an example section 2. For comparison, a non-treatment section, which was seeded with corn without application of a clothianidin water dispersible granule, was provided. […] 34 days after application of the clothianidin water dispersible granule, the number of plants of corn damaged by Agriotes spp. in each of the example section 2 and the non-treatment section was investigated, a damage plant rate was calculated in accordance with the following equation, and then an average damage plants rate of the four investigation sections was determined. […]

CN/C(=N\[N+](=O)[O-])NCc1cnc(Cl)s1 [clothianidin]
Damage plant rate (%) [1]: 0% | Lodge rate compared to non-treatment section [2]: low lodge rate as compared to the non-treatment section | Damage plant rate (%) [3]: 7.7%
